Experimental data taken from patent US20250154686A1, “COMPOUND LIBRARY” (CHUGAI SEIYAKU KABUSHIKI KAISHA, priority 2021, published 2025).

Target: T1, Bcl-2 protein (Recombinant Human Bcl-2 Protein) (Homo sapiens, UniProt P10415)
T1 construct: purchased Novus Biologicals NBP2-34889
Experiment: AS-MS evaluation of binding of the Example 4 mixture library (1200 compounds/well) to Bcl-2, ASMS ratio (%)
Details: Bcl-2 protein; for ASMS ratio (%) n = 1: replicate n = 1; for ASMS ratio (%) n = 2: replicate n = 2
Experimental: DMSO solutions (prepared into approximately 0.58 mM based on calculation from the average molecular weight of each mixture) of 12 types of mixtures that could each contain 100 compounds, i.e., mixAI-B4J-01, mixAI-B1M-01, mixAI-B1K-01, mixAI-BIO-01, mixAI-B1A-01, mixAI-B3A-01, mixAI-B21-01, mixAI-B2L-01, mixAI-B2N-01, mixAI-B2A-01, mixAI-B2Q-01, and mixAI-B2R-01, shown in Table AI-03-B4J-01, Table AI-03-B1M-01, Table AI-03-B1K-01, Table AI-03-B10-01, Table AI-03-B1A-01, Table AI-03-B3A-01, Table AI-03-B21-01, Table AI-03-B2L-01, Table AI-03-B2N-01, Table AI-03-B2A-01, Table AI-03-B2Q-01, and Table AI-03-B2R-01 described in Example 4, were respectively dispensed to a total of 12 wells of MICROPLATE, 96-well, PP, V-BOTTOM (Greiner Bio-One International GmbH, 651201). 70 nL each from the 12 wells was collected into any one well using LABCYTE ECHO® 555 acoustic dispensing system (Beckman Coulter, Inc.) to prepare a sample solution in a mixed state of 1200 compounds (the presence of 1152 compounds was already identified when the mixtures were prepared in Example 4). Further, Bcl-2 protein (Novus Biologicals, NBP2-34889, Recombinant Human Bcl-2 Protein, Lot E60145051) (19.2 μL) prepared at 20.9 μM in advance using a Tris-HCl buffer (25 mM Tris-HCl, pH 7.4, 150 mM NaCl, 0.025% Tween-20, and 1 mM DTT) was added to the well containing the dispensed 1200 compounds (the presence of 1152 compounds was already identified when the mixtures were prepared in Example 4) (final compound concentration: 20 nM, final Bcl-2 concentration: 20 μM), and the plate was incubated at 23° C. for 1 hour in the dark. Subsequently, 200 μL of an assay buffer (25 mM Tris-HCl, pH 7.4, 150 mM NaCl, 0.025% Tween-20, and 1 mM DTT) was centrifuged three times at 2000×G at 4° C. for 2 minutes using 96-well MacroSpin column, P-2 Material (Harvard Bioscience, Inc., 74-5655) that had been allowed to swell to condition the 96-well MacroSpin column. Subsequently, 20 μL of the sample thus incubated was added to the 96-well MacroSpin column, P-2 Material after the completion of conditioning, and SEC treatment was performed by centrifugation at 2000×G for 2 minutes. 32 μL of a 1:1 mixed solution of acetonitrile and methanol (LC/MS grade, FUJIFILM Wako Pure Chemical Corp.) was added to a flow-through liquid from SEC, and the mixture was centrifuged at 1800×G at 4° C. for 5 minutes. The supernatant was used as analysis sample ASMS (A). By a similar operation, a sample prepared at 1200 compounds/well and supplemented with only a Tris-HCl buffer containing no Bcl-2 protein was incubated under the same conditions as above, and the same organic solvent as above was added thereto without 96-well MacroSpin column treatment. A supernatant obtained by a centrifugation operation was used as STD (B). Next, by a similar operation, a sample prepared at 1200 compounds/well and supplemented with only a Tris-HCl buffer containing no Bcl-2 protein was incubated under the same conditions as above and treated with 96-well MacroSpin column in the same manner as above, and the same organic solvent as above was added thereto. A supernatant obtained by a centrifugation operation was used as BK (C). These samples were measured by reverse-phase LC/MS.
Then, the samples A, B and C were analyzed for the 1200 compounds using TraceFinder 5.1 (Thermo Fisher Scientific Inc.) and CHANCE Software (in-house), and an ASMS ratio (%) was calculated according to the following expression.
Although m/z of the MS peaks was confirmed down to four decimal places, 0 at the decimal level may be omitted in the description in Table AJ-01. For example, “587.0000” is also referred to as “587”, “587.1000” is also referred to as “587.1”, “587.1200” is also referred to as “587.12”, and “587.1230” is also referred to as “587.123”.

[1] = AS-MS, mixture of 1200 compounds/well
[2] = mixture library of 1200 compounds/well, compounds assigned by expected m/z

T1 sequence (P10415 whole entry): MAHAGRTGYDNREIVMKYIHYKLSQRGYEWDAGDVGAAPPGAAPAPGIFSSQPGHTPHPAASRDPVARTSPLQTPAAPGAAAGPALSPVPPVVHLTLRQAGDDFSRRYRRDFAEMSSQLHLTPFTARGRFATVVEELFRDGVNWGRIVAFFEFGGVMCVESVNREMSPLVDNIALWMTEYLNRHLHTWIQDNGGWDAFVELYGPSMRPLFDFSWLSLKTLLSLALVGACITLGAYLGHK

| ASMS ratio (%) n = 1 [1] | ASMS ratio (%) n = 2 [1] | ASMS ratio (%) n = 2 [2] | Molecule |
| --- | --- | --- | --- |
| 0.3% | 0.3% |  | CCCNC(=O)c1ccc(N2CCN(C(=O)c3ccccc3C#Cc3cccc(OCC)c3)CC2)nn1 [Compound B1M007-01] |
|  | 0.0% |  | CCCNC(=O)c1ccc(N2CCN(C(=O)c3ccccc3C#Cc3cncc(OCC)c3)CC2)nn1 [Compound B1M008-01] |
|  | 0.0% |  | CCCNC(=O)c1ccc(N2CCN(C(=O)c3cncc(C#Cc4cccc(OCC)c4)c3)CC2)nn1 [Compound B1M009-01] |
| 0.0% | 0.0% |  | CCCNC(=O)c1ccc(N2CCN(C(=O)c3cncc(C#Cc4cncc(OCC)c4)c3)CC2)nn1 [Compound B1M010-01] |
| 18.6% | 7.5% |  | CCCNC(=O)c1ccc(N2CCN(C(=O)CCc3ccccc3-c3cccc(OCC)c3)CC2)nn1 [Compound B1M011-01] |
| −3.5% | −2.3% |  | CCCNC(=O)c1ccc(N2CCN(Cc3cc(OCC)cc(-c4cncc(OCC)c4)c3)CC2)nn1 [Compound B1M012-01, 6-[4-[[3-Ethoxy-5-(5-ethoxypyridin-3-yl)phenyl]methyl]piperazin-1-yl]-N-propylpyridazine-3-carboxamide] |

Continued, molecule first:

| Molecule | ASMS ratio (%) n = 1 [1] | ASMS ratio (%) n = 2 [1] | ASMS ratio (%) n = 2 [2] |
| --- | --- | --- | --- |
| 4-[4-[[2-[2-(3-Ethoxyphenyl)ethynyl]phenyl]methyl]piperazin-1-yl]-N-propylbenzamide [Compound B1M052-01] | 27.6% | 20.2% |  |
| 4-[4-[[4-(3-Ethoxyphenyl)-3-fluorophenyl]methyl]piperazin-1-yl]-N-propylbenzamide [Compound B1M079-01] | 8.1% |  |  |
| 4-[4-[[4-(3-Ethoxyphenyl)-3-methylphenyl]methyl]piperazin-1-yl]-N-propylbenzamide [Compound B1M058-01] | −1.4% |  |  |
| 4-[4-[[4-(5-Ethoxypyridin-3-yl)-2-ethylphenyl]methyl]piperazin-1-yl]-N-propylbenzamide [Compound B1M075-01] | 77.3% | 46.1% |  |
| 6-[4-[[2-(5-Ethoxypyridin-3-yl)phenyl]methyl]piperazin-1-yl]-N-propylpyridazine-3-carboxamide [Compound B1M043-01] | 2.2% |  |  |
| CCOc1cncc(-c2cc(C(=O)N3CCN(c4ccc(C(=O)NCC56CC7CC(CC(C7)C5)C6)nn4)CC3)cc(C(C)(C)C)c2)c1 [Compound B1A016-01, N-(1-Adamantylmethyl)-6-[4-[3-tert-butyl-5-(5-ethoxypyridin-3-yl)benzoyl]piperazin-1-yl]pyridazine-3-carboxamide] |  |  | −4. % |
| CCOc1cccc(-c2cc(CN3CCN(c4ccc(C(=O)NCC56CC7CC(CC(C7)C5)C6)nn4)CC3)cc(OCC)c2)c1 [Compound B1A081-01, N-(1-Adamantylmethyl)-6-[4-[[3-ethoxy-5-(3-ethoxyphenyl)phenyl]methyl]piperazin-1-yl]pyridazine-3-carboxamide] |  |  | −5. % |
| CCOc1cccc(-c2cc(CN3CCN(c4ccc(C(=O)NCC(F)(F)F)cc4)CC3)cc(OC(F)(F)F)c2)c1 [Compound B1K063-01, 4-[4-[[3-(3-Ethoxyphenyl)-5-(trifluoromethoxy)phenyl]methyl]piperazin-1-yl]-N-(2,2,2-trifluoroethyl)benzamide] | 3.9% | 0.4% |  |
| CCCNC(=O)c1ccc(N2CCN(C(=O)c3ccc(-c4cccc(OCC)c4)c(C)c3)CC2)nn1 [Compound B1M003-01] | −1.9% | 2.0% |  |
| CCCNC(=O)c1ccc(N2CCN(C(=O)c3ccc(-c4cncc(OCC)c4)c(C)c3)CC2)nn1 [Compound B1M004-01] | 0.0% | 0.0% |  |
| CCCNC(=O)c1ccc(N2CCN(C(=O)c3ccc(-c4cncc(OCC)c4)c(F)c3)CC2)nn1 [Compound B1M006-01] | 0.0% | 0.0% |  |
